pIC50: −log10 of the molar value. Bridge positions count the residues as written; N and C are the ends. Square brackets hold non-standard residues; d marks the D form. Peptide text beside a SMILES is read from it. * marks the point of attachment. Phe(4-CH2CH2COOH) = N[C@@H](Cc1ccc(CCC(=O)O)cc1)C(=O)O; Phe(4-COOH) = N[C@@H](Cc1ccc(C(=O)O)cc1)C(=O)O; Bip = N[C@@H](Cc1ccc(-c2ccccc2)cc1)C(=O)O; Phe(3-Me) = Cc1cccc(C[C@H](N)C(=O)O)c1; Val(3-F) = CC(C)(F)[C@H](N)C(=O)O; Cha = N[C@@H](CC1CCCCC1)C(=O)O; Cit = NC(=O)NCCC[C@H](N)C(=O)O; Carboxymethyl = O=C(O)C*; Orn = NCCC[C@H](N)C(=O)O; Aun = NCCCCCCCCCCC(=O)O; Dab = NCC[C@H](N)C(=O)O; Piv = CC(C)(C)C(=O)*
Target: T1, PD-1/PD-L1 interaction (PE-labeled human PD-L1-Ig binding to Jurkat cell line over-expressing human PD-1) (Homo sapiens, UniProt Q15116)
T1 construct: expressed in transfected cells; host or cells: Jurkat
T1 sequence (Q15116 25-288): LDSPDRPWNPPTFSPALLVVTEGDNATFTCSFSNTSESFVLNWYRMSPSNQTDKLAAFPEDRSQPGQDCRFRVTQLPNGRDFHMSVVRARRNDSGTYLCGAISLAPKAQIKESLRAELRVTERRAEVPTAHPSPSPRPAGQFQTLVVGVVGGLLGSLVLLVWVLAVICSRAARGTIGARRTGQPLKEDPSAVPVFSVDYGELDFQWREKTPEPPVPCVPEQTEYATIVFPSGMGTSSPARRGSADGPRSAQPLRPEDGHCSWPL
Test: Jurkat-PD-1 Cell Binding High-Content Screening Assay (CBA)
Assay type: cell-based
Details: Jurkat cell line over-expressing human PD-1; PE-labeled PD-L1-Ig 20 nM final; read-out: Jurkat hPD1-PDL1 IC50
In short: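 First, compound is added to PD-1-expressing Jurkat cells in serum-containing DMEM and left 2 h at 37° C. Next, PE-conjugated PD-L1-Ig is introduced at 20 nM final concentration for 1 hour. Finally, cells are fixed in 4% paraformaldehyde with Hoechst 33342, washed and imaged.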

Row | SMILES | pIC50
1 | Cc1cccc(C[C@@H]2NC(=O)[C@H](CC(=O)O)NC(=O)[C@H](Cc3ccc(OCC(=O)O)cc3)NC(=O)[C@H](CCCNC(=N)N)NC(=O)CSC[C@@H](C(=O)N[C@@H](CCN)C(=O)NCCCCCCCCCCC(=O)O)NC(=O)[C@H](CO)NC(=O)[C@H](C(C)(C)F)NC(=O)[C@H](CC3CCCCC3)NC(=O)[C@H](CCN)NC(=O)[C@@H](CC(C)C)NC(=O)[C@H](CCCN)NC(=O)[C@H](Cc3ccc(OCC(=O)O)cc3)NC(=O)[C@H](Cc3ccc(-c4ccccc4)cc3)NC(=O)[C@H](Cc3ccc(O)cc3)NC2=O)c1 [Compound 2121] ({CH2CO}-RY(Carboxymethyl)D[Phe(3-Me)]Y[Bip]Y(Carboxymethyl)[Orn][dL][Dab][Cha][Val(3-F)]SC[Dab][Aun]-OH; thioether N-14) | 8.08
2 | Cc1cccc(C[C@@H]2NC(=O)[C@H](CC(=O)O)NC(=O)[C@H](Cc3ccc(OCC(=O)O)cc3)NC(=O)[C@H](CCNC(=O)C(C)(C)C)NC(=O)CSC[C@@H](C(=O)N[C@@H](CCN)C(=O)NCCCCCCCCCCC(=O)O)NC(=O)[C@H]([C@@H](C)O)NC(=O)[C@H](C(C)C)NC(=O)[C@H](CC3CCCCC3)NC(=O)[C@H](CCN)NC(=O)[C@@H](CC(C)C)NC(=O)[C@H](CCCN)NC(=O)[C@H](Cc3ccc(OCC(=O)O)cc3)NC(=O)[C@H](Cc3ccc(-c4ccccc4)cc3)NC(=O)[C@H](Cc3ccc(C(=O)O)cc3)NC2=O)c1 [Compound 2127] ({CH2CO}-[Dab](Piv)Y(Carboxymethyl)D[Phe(3-Me)][Phe(4-COOH)][Bip]Y(Carboxymethyl)[Orn][dL][Dab][Cha]VTC[Dab][Aun]-OH; thioether N-14) | 7.55
3 | Cc1cccc(C[C@@H]2NC(=O)[C@H](CC(=O)O)NC(=O)[C@H](Cc3ccc(OCC(=O)O)cc3)NC(=O)[C@H](CCNC(=O)C(C)(C)C)NC(=O)CSC[C@@H](C(=O)N[C@@H](CCN)C(=O)NCCCCCCCCCCC(=O)O)NC(=O)[C@H](CCC(N)=O)NC(=O)[C@H](C(C)C)NC(=O)[C@H](CC3CCCCC3)NC(=O)[C@H](CCN)NC(=O)[C@@H](CC(C)C)NC(=O)[C@H](CCCN)NC(=O)[C@H](Cc3ccc(OCC(=O)O)cc3)NC(=O)[C@H](Cc3ccc(-c4ccccc4)cc3)NC(=O)[C@H](Cc3ccc(C(=O)O)cc3)NC2=O)c1 [Compound 2128] ({CH2CO}-[Dab](Piv)Y(Carboxymethyl)D[Phe(3-Me)][Phe(4-COOH)][Bip]Y(Carboxymethyl)[Orn][dL][Dab][Cha]VQC[Dab][Aun]-OH; thioether N-14) | 7.97
4 | Cc1cccc(C[C@@H]2NC(=O)[C@H](CC(=O)O)NC(=O)[C@H](Cc3ccc(OCC(=O)O)cc3)NC(=O)[C@H](CCCNC(=N)N)NC(=O)CSC[C@@H](C(=O)N[C@@H](CCN)C(=O)NCCCCCCCCCCC(=O)O)NC(=O)[C@H](CCC(N)=O)NC(=O)[C@H](C(C)C)NC(=O)[C@H](CC3CCCCC3)NC(=O)[C@H](CCN)NC(=O)[C@@H](CC(C)C)NC(=O)[C@H](CCCN)NC(=O)[C@H](Cc3ccc(OCC(=O)O)cc3)NC(=O)[C@H](Cc3ccc(-c4ccccc4)cc3)NC(=O)[C@H](Cc3ccc(CCC(=O)O)cc3)NC2=O)c1 [Compound 2129] ({CH2CO}-RY(Carboxymethyl)D[Phe(3-Me)][Phe(4-CH2CH2COOH)][Bip]Y(Carboxymethyl)[Orn][dL][Dab][Cha]VQC[Dab][Aun]-OH; thioether N-14) | 8.22

Further lines, results first:

Row | pIC50 | SMILES
5 | 7.96 | Cc1cccc(C[C@@H]2NC(=O)[C@H](CC(=O)O)NC(=O)[C@H](Cc3ccc(OCC(=O)O)cc3)NC(=O)[C@H](CCCNC(=N)N)NC(=O)CSC[C@@H](C(=O)N[C@@H](CCN)C(=O)NCCCCCCCCCCC(=O)O)NC(=O)[C@H](CCC(N)=O)NC(=O)[C@H](C(C)C)NC(=O)[C@H](CC3CCCCC3)NC(=O)[C@H](CCN)NC(=O)[C@@H](CC(C)C)NC(=O)[C@H](CCCN)NC(=O)[C@H](Cc3ccc(OCC(=O)O)cc3)NC(=O)[C@H](Cc3ccc(-c4ccccc4)cc3)NC(=O)[C@H](C(C)(C)F)NC2=O)c1 [Compound 2122] ({CH2CO}-RY(Carboxymethyl)D[Phe(3-Me)][Val(3-F)][Bip]Y(Carboxymethyl)[Orn][dL][Dab][Cha]VQC[Dab][Aun]-OH; thioether N-14)
6 | 7.85 | Cc1cccc(C[C@@H]2NC(=O)[C@H](CC(=O)O)NC(=O)[C@H](Cc3ccc(OCC(=O)O)cc3)NC(=O)[C@H](CCCNC(=N)N)NC(=O)CSC[C@@H](C(=O)N[C@@H](CCN)C(=O)NCCCCCCCCCCC(=O)O)NC(=O)[C@H]([C@@H](C)O)NC(=O)[C@H](C(C)C)NC(=O)[C@H](CC3CCCCC3)NC(=O)[C@H](CCN)NC(=O)[C@@H](CC(C)C)NC(=O)[C@H](CCCN)NC(=O)[C@H](Cc3ccc(OCC(=O)O)cc3)NC(=O)[C@H](Cc3ccc(-c4ccccc4)cc3)NC(=O)[C@H](C(C)(C)F)NC2=O)c1 [Compound 2123] ({CH2CO}-RY(Carboxymethyl)D[Phe(3-Me)][Val(3-F)][Bip]Y(Carboxymethyl)[Orn][dL][Dab][Cha]VTC[Dab][Aun]-OH; thioether N-14)
7 | 7.76 | Cc1cccc(C[C@@H]2NC(=O)[C@H](CC(=O)O)NC(=O)[C@H](Cc3ccc(OCC(=O)O)cc3)NC(=O)[C@H](CCCNC(=N)N)NC(=O)CSC[C@@H](C(=O)N[C@@H](CCN)C(=O)NCCCCCCCCCCC(=O)O)NC(=O)[C@H]([C@@H](C)O)NC(=O)[C@H](C(C)C)NC(=O)[C@H](CC3CCCCC3)NC(=O)[C@H](CCN)NC(=O)[C@@H](CC(C)C)NC(=O)[C@H](CCCN)NC(=O)[C@H](CCCNC(N)=O)NC(=O)[C@H](Cc3ccc(-c4ccccc4)cc3)NC(=O)[C@H](C(C)(C)F)NC2=O)c1 [Compound 2124] ({CH2CO}-RY(Carboxymethyl)D[Phe(3-Me)][Val(3-F)][Bip][Cit][Orn][dL][Dab][Cha]VTC[Dab][Aun]-OH; thioether N-14)
8 | 7.79 | Cc1cccc(C[C@@H]2NC(=O)[C@H](CC(=O)O)NC(=O)[C@H](Cc3ccc(OCC(=O)O)cc3)NC(=O)[C@H](CCCNC(=N)N)NC(=O)CSC[C@@H](C(=O)N[C@@H](CCN)C(=O)NCCCCCCCCCCC(=O)O)NC(=O)[C@H]([C@@H](C)O)NC(=O)[C@H](C(C)C)NC(=O)[C@H](CC3CCCCC3)NC(=O)[C@H](CCN)NC(=O)[C@@H](CC(C)C)NC(=O)[C@H](CCCN)NC(=O)[C@H](Cc3ccc(O)cc3)NC(=O)[C@H](Cc3ccc(-c4ccccc4)cc3)NC(=O)[C@H](C(C)(C)F)NC2=O)c1 [Compound 2125] ({CH2CO}-RY(Carboxymethyl)D[Phe(3-Me)][Val(3-F)][Bip]Y[Orn][dL][Dab][Cha]VTC[Dab][Aun]-OH; thioether N-14)
9 | 7.45 | Cc1cccc(C[C@@H]2NC(=O)[C@H](CC(=O)O)NC(=O)[C@H](Cc3ccc(OCC(=O)O)cc3)NC(=O)[C@H](CCCNC(=N)N)NC(=O)CSC[C@@H](C(=O)N[C@@H](CCN)C(=O)NCCCCCCCCCCC(=O)O)NC(=O)[C@H]([C@@H](C)O)NC(=O)[C@H](C(C)(C)F)NC(=O)[C@H](CC3CCCCC3)NC(=O)[C@H](CCN)NC(=O)[C@@H](CC(C)C)NC(=O)[C@H](CCCN)NC(=O)[C@H](Cc3ccc(O)cc3)NC(=O)[C@H](Cc3ccc(-c4ccccc4)cc3)NC(=O)[C@H](Cc3ccc(O)cc3)NC2=O)c1 [Compound 2126] ({CH2CO}-RY(Carboxymethyl)D[Phe(3-Me)]Y[Bip]Y[Orn][dL][Dab][Cha][Val(3-F)]TC[Dab][Aun]-OH; thioether N-14)

— US20260022142A1, “MACROCYCLIC IMMUNOMODULATORS” (Bristol-Myers Squibb Company, priority 2022, published 2026)
